Test results as given in PubChem BioAssay (NCI).
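Tested at 5 concentrations; 48 h exposure; 96-well plates; endpoints linearly interpolated, else capped at highest concentration. GI50 = concentration required for 50% inhibition of growth. TGI is the concentration that stops growth completely.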

Key:
Assay in all cases: inhibition of tumour cell growth, NCI panel, 48 h
SK-MEL-28 melanoma = system: SK-MEL-28 melanoma
SF-268 CNS = system: SF-268 CNS
NCI/ADR-RES ovarian = system: NCI/ADR-RES ovarian
MDA-MB-231 breast = system: MDA-MB-231 breast
SK-OV-3 ovarian = system: SK-OV-3 ovarian
NCI-H460 lung = system: NCI-H460 lung
U251 CNS = system: U251 CNS
NCI-H226 lung = system: NCI-H226 lung
NCI-H522 lung = system: NCI-H522 lung
SN12C renal = system: SN12C renal
MCF7 breast = system: MCF7 breast
MALME-3M melanoma = system: MALME-3M melanoma
HOP-92 NSCLC = system: HOP-92 NSCLC
LOX IMVI melanoma = system: LOX IMVI melanoma
OVCAR-4 ovarian = system: OVCAR-4 ovarian
HS 578T breast = system: HS 578T breast
ACHN renal = system: ACHN renal
OVCAR-8 ovarian = system: OVCAR-8 ovarian
K-562 leukemia = system: K-562 leukemia
MOLT-4 leukemia = system: MOLT-4 leukemia
SR leukemia = system: SR leukemia
EKVX NSCLC = system: EKVX NSCLC
BT-549 breast = system: BT-549 breast
SF-539 CNS = system: SF-539 CNS
NCI-H23 lung = system: NCI-H23 lung
HL-60(TB) leukemia = system: HL-60(TB) leukemia
M14 melanoma = system: M14 melanoma
SNB-75 CNS = system: SNB-75 CNS
SF-295 CNS = system: SF-295 CNS
786-0 renal = system: 786-0 renal
UACC-62 melanoma = system: UACC-62 melanoma
HT29 colon = system: HT29 colon
HCC-2998 colon = system: HCC-2998 colon
OVCAR-5 ovarian = system: OVCAR-5 ovarian
A498 renal = system: A498 renal
SK-MEL-5 melanoma = system: SK-MEL-5 melanoma
RPMI-8226 leukemia = system: RPMI-8226 leukemia
HCT-116 colon = system: HCT-116 colon
UO-31 renal = system: UO-31 renal
OVCAR-3 ovarian = system: OVCAR-3 ovarian
PC-3 prostate = system: PC-3 prostate
UACC-257 melanoma = system: UACC-257 melanoma
CCRF-CEM leukemia = system: CCRF-CEM leukemia
HOP-62 NSCLC = system: HOP-62 NSCLC
A549 NSCLC = system: A549 NSCLC
SK-MEL-2 melanoma = system: SK-MEL-2 melanoma
DU-145 prostate = system: DU-145 prostate
CAKI-1 renal = system: CAKI-1 renal
IGROV1 ovarian = system: IGROV1 ovarian
T-47D breast = system: T-47D breast
TK-10 renal = system: TK-10 renal
COLO 205 colon = system: COLO 205 colon
KM12 colon = system: KM12 colon
HCT-15 colon = system: HCT-15 colon
RXF 393 renal = system: RXF 393 renal
MDA-MB-435 = system: MDA-MB-435
SW-620 colon = system: SW-620 colon
SNB-19 CNS = system: SNB-19 CNS

O=C1NC(=O)C(c2cccc(Cl)c2)=C1Nc1ccc(O)c(Cl)c1 gave a GI50 (SK-MEL-28 melanoma) of 13.7 µM, a TGI (SK-MEL-28 melanoma) greater than 25 µM and a GI50 (SF-268 CNS) of 11.2 µM. The TGI (SF-268 CNS) was greater than 25 µM, the GI50 (NCI/ADR-RES ovarian) was 10.4 µM and the TGI (NCI/ADR-RES ovarian) was greater than 25 µM. The GI50 (MDA-MB-231 breast) was 16.1 µM, the TGI (MDA-MB-231 breast) was greater than 25 µM and the GI50 (SK-OV-3 ovarian) was 6.62 µM. It also gave a TGI (SK-OV-3 ovarian) of 16.2 µM, a GI50 (NCI-H460 lung) of 8.91 µM and a TGI (NCI-H460 lung) greater than 25 µM. The GI50 (U251 CNS) was 12.5 µM, the TGI (U251 CNS) was greater than 25 µM and the GI50 (NCI-H226 lung) was 12 µM. For the same compound, the TGI (NCI-H226 lung) was greater than 25 µM, the GI50 (NCI-H522 lung) was 6.98 µM and the TGI (NCI-H522 lung) was greater than 21 µM. The GI50 (SN12C renal) was 9.42 µM, the TGI (SN12C renal) was greater than 25 µM and the GI50 (MCF7 breast) was 10.4 µM. The TGI (MCF7 breast) was greater than 25 µM, the GI50 (MALME-3M melanoma) was 15.9 µM and the TGI (MALME-3M melanoma) was greater than 25 µM. The GI50 (HOP-92 NSCLC) was 5.76 µM, the TGI (HOP-92 NSCLC) was greater than 25 µM and the GI50 (LOX IMVI melanoma) was 8.85 µM. For the same compound, the TGI (LOX IMVI melanoma) was greater than 25 µM, the GI50 (OVCAR-4 ovarian) was 8.98 µM and the TGI (OVCAR-4 ovarian) was greater than 25 µM. It also gave a GI50 (HS 578T breast) of 5.11 µM, a TGI (HS 578T breast) of 19.3 µM and a GI50 (ACHN renal) of 11.4 µM. For the same compound, the TGI (ACHN renal) was greater than 25 µM, the GI50 (OVCAR-8 ovarian) was 14 µM and the TGI (OVCAR-8 ovarian) was greater than 25 µM. The GI50 (K-562 leukemia) was 11.7 µM, the TGI (K-562 leukemia) was greater than 25 µM and the GI50 (MOLT-4 leukemia) was 15 µM. For the same compound, the TGI (MOLT-4 leukemia) was greater than 25 µM, the GI50 (SR leukemia) was 11.3 µM and the TGI (SR leukemia) was greater than 25 µM. For the same compound, the GI50 (EKVX NSCLC) was 10.6 µM, the TGI (EKVX NSCLC) was greater than 25 µM and the GI50 (BT-549 breast) was 11.3 µM. For the same compound, the TGI (BT-549 breast) was greater than 25 µM, the GI50 (SF-539 CNS) was 7.71 µM and the TGI (SF-539 CNS) was greater than 21.9 µM. The GI50 (NCI-H23 lung) was 12.9 µM, the TGI (NCI-H23 lung) was greater than 25 µM and the GI50 (HL-60(TB) leukemia) was 8.75 µM. The TGI (HL-60(TB) leukemia) was greater than 25 µM, the GI50 (M14 melanoma) was 12.1 µM and the TGI (M14 melanoma) was greater than 25 µM. For the same compound, the GI50 (SNB-75 CNS) was 6.96 µM, the TGI (SNB-75 CNS) was greater than 20.4 µM and the GI50 (SF-295 CNS) was 11.6 µM. For the same compound, the TGI (SF-295 CNS) was greater than 25 µM, the GI50 (786-0 renal) was 12.1 µM and the TGI (786-0 renal) was greater than 25 µM. The GI50 (UACC-62 melanoma) was 7.63 µM, the TGI (UACC-62 melanoma) was greater than 25 µM and the GI50 (HT29 colon) was 10 µM. The TGI (HT29 colon) was greater than 25 µM, the GI50 (HCC-2998 colon) was 24.6 µM and the TGI (HCC-2998 colon) was greater than 25 µM. The GI50 (OVCAR-5 ovarian) was 22.4 µM, the TGI (OVCAR-5 ovarian) was greater than 25 µM and the GI50 (A498 renal) was 11.1 µM. For the same compound, the TGI (A498 renal) was greater than 25 µM, the GI50 (SK-MEL-5 melanoma) was 5.46 µM and the TGI (SK-MEL-5 melanoma) was 18.6 µM. It also gave a GI50 (RPMI-8226 leukemia) of 14 µM, a TGI (RPMI-8226 leukemia) greater than 25 µM and a GI50 (HCT-116 colon) of 9.6 µM. It also gave a TGI (HCT-116 colon) greater than 25 µM, a GI50 (UO-31 renal) of 7.93 µM and a TGI (UO-31 renal) greater than 25 µM. The GI50 (OVCAR-3 ovarian) was 7.86 µM, the TGI (OVCAR-3 ovarian) was greater than 21.9 µM and the GI50 (PC-3 prostate) was 12.2 µM. The TGI (PC-3 prostate) was greater than 25 µM, the GI50 (UACC-257 melanoma) was greater than 25 µM and the TGI (UACC-257 melanoma) was greater than 25 µM. For the same compound, the GI50 (CCRF-CEM leukemia) was 11 µM, the TGI (CCRF-CEM leukemia) was greater than 25 µM and the GI50 (HOP-62 NSCLC) was 9.57 µM. The TGI (HOP-62 NSCLC) was 24.3 µM, the GI50 (A549 NSCLC) was 9.88 µM and the TGI (A549 NSCLC) was greater than 25 µM. For the same compound, the GI50 (SK-MEL-2 melanoma) was 7.91 µM, the TGI (SK-MEL-2 melanoma) was 22.5 µM and the GI50 (DU-145 prostate) was 14.1 µM. It also gave a TGI (DU-145 prostate) greater than 25 µM, a GI50 (CAKI-1 renal) of 7.72 µM and a TGI (CAKI-1 renal) greater than 25 µM. The GI50 (IGROV1 ovarian) was 12.9 µM, the TGI (IGROV1 ovarian) was greater than 25 µM and the GI50 (T-47D breast) was 7.98 µM. It also gave a TGI (T-47D breast) greater than 23.1 µM, a GI50 (TK-10 renal) of 8.66 µM and a TGI (TK-10 renal) greater than 25 µM. For the same compound, the GI50 (COLO 205 colon) was greater than 20.1 µM, the TGI (COLO 205 colon) was greater than 25 µM and the GI50 (KM12 colon) was 10.5 µM. For the same compound, the TGI (KM12 colon) was greater than 25 µM, the GI50 (HCT-15 colon) was 8.66 µM and the TGI (HCT-15 colon) was greater than 25 µM. The GI50 (RXF 393 renal) was 6.4 µM, the TGI (RXF 393 renal) was 24.8 µM and the GI50 (MDA-MB-435) was 3.28 µM. It also gave a TGI (MDA-MB-435) greater than 25 µM, a GI50 (SW-620 colon) of 8.73 µM and a TGI (SW-620 colon) greater than 25 µM. It also gave a GI50 (SNB-19 CNS) of 15.9 µM and a TGI (SNB-19 CNS) greater than 25 µM.
